US20240343694A1, “PYRIMIDINE DERIVATIVE, METHOD FOR PREPARING SAME, AND PHARMACEUTICAL COMPOSITION FOR PREVENTING OR TREATING CANCER COMPRISING SAME AS ACTIVE INGREDIENT” (KOREA RESERARCH INSTITUTE OF CHEMICAL TECHNOLOGY, priority 2021, published 2024)

How the values were obtained:
EGFR del19 = EGFR del19 (Homo sapiens (Human), UniProt P00533, DEL746-750); test: HTRF inhibitory activity against EGFR mutant enzyme (EGFR del19); assay type: biochemical; conditions: recombinant enzyme, 37° C. for 2 hours
EGFR del19, sequence (P00533 other isoform, or with tags, fused parts or gaps del 1-668/del 746-750 limits assumed): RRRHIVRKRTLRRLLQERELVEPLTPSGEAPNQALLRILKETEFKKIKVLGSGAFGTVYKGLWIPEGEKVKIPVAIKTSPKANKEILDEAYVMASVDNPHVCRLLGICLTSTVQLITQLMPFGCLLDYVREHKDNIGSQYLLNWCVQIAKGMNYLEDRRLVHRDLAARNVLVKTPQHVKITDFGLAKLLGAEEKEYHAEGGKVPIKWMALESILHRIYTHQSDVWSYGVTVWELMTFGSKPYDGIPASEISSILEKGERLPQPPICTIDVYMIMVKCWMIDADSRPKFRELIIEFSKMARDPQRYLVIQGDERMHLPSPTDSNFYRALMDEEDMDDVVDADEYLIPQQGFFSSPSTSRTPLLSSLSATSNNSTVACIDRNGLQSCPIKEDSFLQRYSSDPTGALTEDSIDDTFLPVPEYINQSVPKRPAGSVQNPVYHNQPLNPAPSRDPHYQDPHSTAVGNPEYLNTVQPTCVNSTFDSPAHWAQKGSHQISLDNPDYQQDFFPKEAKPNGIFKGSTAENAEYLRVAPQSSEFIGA
Summary of the method: (§1)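 Recombinant EGFR del19 or A763_Y764insFHEA was premixed with compound in 50 mM Tris pH 7.5 with 7.5 mM MgCl2 and 1 mM DTT. ATP (50 mM as printed) and biotin-peptide (0.5 mM) were added and reacted 2 h at 37 °C. The HTRF 665/615 read used streptavidin-XL665 and Eu anti-phosphotyrosine. IC50 was fitted from 7 concentrations.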

EGFR A763_Y764insFHEA = EGFR A763_Y764insFHEA (Homo sapiens (Human), UniProt P00533, INS763FHEA); test: HTRF inhibitory activity against EGFR mutant enzyme (EGFR A763_Y764insFHEA); assay type: biochemical; conditions: recombinant enzyme, 37° C. for 2 hours
EGFR A763_Y764insFHEA, sequence (P00533 other isoform, or with tags, fused parts or gaps del 1-694/ins FHEA behind 763 limits assumed): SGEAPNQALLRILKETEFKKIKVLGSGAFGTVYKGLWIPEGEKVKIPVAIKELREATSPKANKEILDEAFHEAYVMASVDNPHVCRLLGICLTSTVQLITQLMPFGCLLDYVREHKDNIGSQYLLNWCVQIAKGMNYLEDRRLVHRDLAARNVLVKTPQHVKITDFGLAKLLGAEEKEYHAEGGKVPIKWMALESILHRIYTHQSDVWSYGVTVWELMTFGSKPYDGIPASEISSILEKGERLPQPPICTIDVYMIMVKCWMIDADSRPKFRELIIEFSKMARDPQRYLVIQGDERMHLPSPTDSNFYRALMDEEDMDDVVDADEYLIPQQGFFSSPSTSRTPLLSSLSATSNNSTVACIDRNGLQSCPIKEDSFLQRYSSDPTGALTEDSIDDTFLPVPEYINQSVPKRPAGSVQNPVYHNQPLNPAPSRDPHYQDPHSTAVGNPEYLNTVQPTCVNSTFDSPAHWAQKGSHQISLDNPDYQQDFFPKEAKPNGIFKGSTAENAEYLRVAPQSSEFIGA
Summary of the method: as §1

HER2 A775_G776insYVMA = HER2 A775_G776insYVMA (Homo sapiens (Human), UniProt P04626, INS775YVMA); test: HTRF inhibitory activity against HER2 mutant enzyme; assay type: biochemical; conditions: recombinant enzyme, 37° C. for 2 hours
HER2 A775_G776insYVMA, sequence (P04626 other isoform, or with tags, fused parts or gaps del 1-675/ins YVMA behind 775 limits assumed): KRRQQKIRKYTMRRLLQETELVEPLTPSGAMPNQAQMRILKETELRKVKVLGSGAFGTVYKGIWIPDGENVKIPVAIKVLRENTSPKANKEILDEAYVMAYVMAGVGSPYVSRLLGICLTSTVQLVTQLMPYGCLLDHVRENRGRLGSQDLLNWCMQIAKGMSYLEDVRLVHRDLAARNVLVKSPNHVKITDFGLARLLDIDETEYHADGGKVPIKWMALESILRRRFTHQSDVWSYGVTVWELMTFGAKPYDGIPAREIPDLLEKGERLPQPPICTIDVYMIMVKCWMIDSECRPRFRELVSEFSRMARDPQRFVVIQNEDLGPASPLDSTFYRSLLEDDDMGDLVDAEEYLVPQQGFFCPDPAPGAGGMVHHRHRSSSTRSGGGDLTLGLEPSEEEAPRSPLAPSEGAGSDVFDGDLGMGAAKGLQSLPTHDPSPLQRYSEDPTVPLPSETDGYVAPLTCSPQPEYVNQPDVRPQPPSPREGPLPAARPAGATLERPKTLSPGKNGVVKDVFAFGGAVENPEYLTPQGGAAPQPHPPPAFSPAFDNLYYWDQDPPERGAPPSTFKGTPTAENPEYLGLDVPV
Summary of the method: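 Recombinant HER2 A775_G776insYVMA preincubated with compound, then […] and biotinylated peptide ([…]) added; 2 h at 37 °C in Tris-HCl pH 7.5 buffer with MgCl2, DTT. HTRF detection (Eu anti-phosphotyrosine/streptavidin-XL665); IC50 from 7 concentrations.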

[1] = test system: Ba/F3 EGFR D770_N771insSVD; test: Growth inhibition of Ba/F3 EGFR mutant cells (CellTiter-Glo); assay type: cell-based; conditions: Ba/F3 EGFR-D770-N771ins_SVD, 72 hours
Summary of the method: (§2)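 Ba/F3 cells expressing either EGFR insertion mutant were seeded at 1,000 cells/well and dosed 24 h later at eight concentrations from 0 to 10 μM. After 72 h, viability was read by CellTiter-Glo ATP signal. IC50 (μM) was fitted from the eight-point curves.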

[2] = test system: Ba/F3 EGFR V769_D770insASV; test: as above; assay type: cell-based; conditions: 72 hours
Summary of the method: as §2

[3] = test system: Ba/F3 HER2 A775_G776insYVMA; test: Growth inhibition of Ba/F3 HER2 mutant cells (CellTiter-Glo); assay type: cell-based; conditions: Mus musculus, BaF3, 72 hours
Summary of the method: (§3)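 Ba/F3 cells carrying HER2 A775_G776insYVMA or G776delinsVC were seeded at 1,000 cells/well and dosed 24 h later at 0.01-10 μM (8 concentrations including 0). After 72 h, viability was read as cellular ATP by CellTiter-Glo luminescence, and IC50 values were calculated from the 8-point curves.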

Ba/F3 HER2 G776delinsVC = test: as above; assay type: cell-based; conditions: Mus musculus, BaF3, 72 hours
Summary of the method: as §3

| Structure (SMILES) | IC50 (EGFR del19) [nM] | IC50 (EGFR A763_Y764insFHEA) [nM] | IC50 (HER2 A775_G776insYVMA) [nM] | IC50 [1] [nM] | IC50 [2] [nM] | IC50 [3] [nM] | IC50 (Ba/F3 HER2 G776delinsVC) [nM] |
| --- | --- | --- | --- | --- | --- | --- | --- |
| C=CC(=O)Nc1cc(Nc2ncc(Cl)c(Nc3cccc(C)c3N(CC)S(C)(=O)=O)n2)c(OC)cc1N(C)CCN(C)C [Example 39, N-(5-((5-chloro-4-((2-(N-ethylmethylsulfonamido)-3-methylphenyl)amino)pyrimidin-2-yl)amino)-2-((2-(dimethylamino)ethyl)(methyl)amino)-4-methoxyphenyl)acrylamide] | < 1 | < 1 | 8 | 30 to 50 | < 10 | 30 to 50 | < 10 |
| C=CC(=O)Nc1cc(Nc2ncc(Cl)c(Nc3cccc(CC)c3NS(C)(=O)=O)n2)c(OC)cc1N(C)CCN(C)C [Example 40, N-(5-((5-chloro-4-((3-ethyl-2-(methylsulfonamido)phenyl)amino)pyrimidin-2-yl)amino)-2-((2-(dimethylamino)ethyl)(methyl)amino)-4-methoxyphenyl)acrylamide] | < 1 | 1 | 4 | 30 to 50 | 30 to 50 | 30 to 50 | < 10 |
| C=CC(=O)Nc1cc(Nc2ncc(Cl)c(Nc3cccc(CC)c3N(C)S(C)(=O)=O)n2)c(OC)cc1N(C)CCN(C)C [Example 41, N-(5-((5-chloro-4-((3-ethyl-2-(N-methylmethylsulfonamido)phenyl)amino)pyrimidin-2-yl)amino)-2-((2-(dimethylamino)ethyl)(methyl)amino)-4-methoxyphenyl)acrylamide] | < 1 | 1 | 9 | 30 to 50 | 30 to 50 | 50 to 100 | < 10 |
| C=CC(=O)Nc1cc(Nc2ncc(Cl)c(Nc3ccc(C)c(C)c3N(C)S(C)(=O)=O)n2)c(OC)cc1N(C)CCN(C)C [Example 43, N-(5-((5-chloro-4-((3,4-dimethyl-2-(N-methylmethylsulfonamido)phenyl)amino)pyrimidin-2-yl)amino)-2-((2-(dimethylamino)ethyl)(methyl)amino)-4-methoxyphenyl)acrylamide] | < 1 | < 1 | 8 | 50 to 100 | < 10 | 30 to 50 | < 10 |
| C=CC(=O)Nc1cc(Nc2ncc(Cl)c(Nc3ccc(C)cc3N(C)S(C)(=O)=O)n2)c(OC)cc1N(C)CCN(C)C [Example 45, N-(5-((5-chloro-4-((4-methyl-2-(N-methylmethylsulfonamido)phenyl)amino)pyrimidin-2-yl)amino)-2-((2-(dimethylamino)ethyl)(methyl)amino)-4-methoxyphenyl)acrylamide] | < 1 | < 1 | 8 | < 10 | < 10 | < 10 | < 10 |
| C=CC(=O)Nc1cc(Nc2ncc(Cl)c(Nc3ccc(C)cc3NS(C)(=O)=O)n2)c(OC)cc1N(C)CCN(C)C [Example 46, N-(5-((5-chloro-4-((4-methyl-2-(methylsulfonamido)phenyl)amino)pyrimidin-2-yl)amino)-2-((2-(dimethylamino)ethyl)(methyl)amino)-4-methoxyphenyl)acrylamide] | < 1 | < 1 | 2 | < 10 | 30 to 50 | < 10 | 30 to 50 |
| C=CC(=O)Nc1cc(Nc2ncc(Cl)c(Nc3cccc4c3N(S(C)(=O)=O)CCC4)n2)c(OC)cc1N(C)CCN(C)C [Example 47, N-(5-((5-chloro-4-((1-(methylsulfonyl)-1,2,3,4-tetrahydroquinolin-8-yl)amino)pyrimidin-2-yl)amino)-2-((2-(dimethylamino)ethyl)(methyl)amino)-4-methoxyphenyl)acrylamide] | < 1 | < 1 | 6 | < 10 | < 10 | < 10 | < 10 |
| C=CC(=O)Nc1cc(Nc2ncc(Cl)c(Nc3cccc4c3N(S(C)(=O)=O)CCC4)n2)c(OC)cc1N(C)CCNC [Example 48, N-(5-((5-chloro-4-((1-(methylsulfonyl)-1,2,3,4-tetrahydroquinolin-8-yl)amino)pyrimidin-2-yl)amino)-4-methoxy-2-(methyl(2-(methylamino)ethyl)amino)phenyl)acrylamide] | 3 | 7 | 20 | 50 to 100 | 50 to 100 | 50 to 100 | < 10 |
| C=CC(=O)Nc1cc(Nc2ncc(Cl)c(Nc3cccc4c3N(S(C)(=O)=O)CCC4)n2)c(OC)cc1N1CCC(N(C)C)CC1 [Example 49, N-(5-((5-chloro-4-((1-(methylsulfonyl)-1,2,3,4-tetrahydroquinolin-8-yl)amino)pyrimidin-2-yl)amino)-2-(4-(dimethylamino)piperidin-1-yl)-4-methoxyphenyl)acrylamide] | 0.1 | 10 | 60 | 50 to 100 | 50 to 100 | 50 to 100 | < 10 |
| C=CC(=O)Nc1cc(Nc2ncc(Cl)c(Nc3cccc4c3N(S(C)(=O)=O)CCC4)n2)c(OC)cc1N1CCC(N2CCN(C)CC2)CC1 [Example 50, N-(5-((5-chloro-4-((1-(methylsulfonyl)-1,2,3,4-tetrahydroquinolin-8-yl)amino)pyrimidin-2-yl)amino)-4-methoxy-2-(4-(4-methylpiperazin-1-yl)piperidin-1-yl)phenyl)acrylamide] | < 1 | 3 | 60 | 50 to 100 | 50 to 100 | 50 to 100 | < 10 |
| C=CC(=O)Nc1cc(Nc2ncc(Cl)c(Nc3cccc4c3N(S(C)(=O)=O)CC4)n2)c(OC)cc1N(C)CCN(C)C [Example 55, N-(5-((5-chloro-4-((1-(methylsulfonyl)indolin-7-yl)amino)pyrimidin-2-yl)amino)-2-((2-(dimethylamino)ethyl)(methyl)amino)-4-methoxyphenyl)acrylamide] | < 1 | < 1 | < 1 | < 10 | < 10 | < 10 | < 10 |
| C=CC(=O)Nc1cc(Nc2ncc(Cl)c(Nc3cccc4c3N(S(=O)(=O)CC)CC4)n2)c(OC)cc1N(C)CCN(C)C [Example 56, N-(5-((5-chloro-4-((1-(ethylsulfonyl)indolin-7-yl)amino)pyrimidin-2-yl)amino)-2-((2-(dimethylamino)ethyl)(methyl)amino)-4-methoxyphenyl)acrylamide] | < 1 | < 1 | < 1 | < 10 | < 10 | < 10 | < 10 |
| C=CC(=O)Nc1cc(Nc2ncc(Cl)c(Nc3cccc4c3N(S(C)(=O)=O)CC4)n2)c(OC)cc1N(C)CCNC [Example 57, N-(5-((5-chloro-4-((1-(methylsulfonyl)indolin-7-yl)amino)pyrimidin-2-yl)amino)-4-methoxy-2-(methyl(2-(methylamino)ethyl)amino)phenyl)acrylamide] | < 1 | < 1 | < 1 | 50 to 100 | 50 to 100 | 50 to 100 | 50 to 100 |
| C=CC(=O)Nc1cc(Nc2ncc(Cl)c(Nc3cccc4c3N(S(C)(=O)=O)CC4)n2)c(OC)cc1N1CCC(N(C)C)CC1 [Example 58, N-(5-((5-chloro-4-((1-(methylsulfonyl)indolin-7-yl)amino)pyrimidin-2-yl)amino)-2-(4-(dimethylamino)piperidin-1-yl)-4-methoxyphenyl)acrylamide] | < 1 | 10 | 90 | 50 to 100 | 50 to 100 | 50 to 100 | < 10 |
| C=CC(=O)Nc1cc(Nc2ncc(Cl)c(Nc3cccc4c3N(S(C)(=O)=O)CC4)n2)c(OC)cc1N1CCC(N2CCN(C)CC2)CC1 [Example 59, N-(5-((5-chloro-4-((1-(methylsulfonyl)indolin-7-yl)amino)pyrimidin-2-yl)amino)-4-methoxy-2-(4-(4-methylpiperazin-1-yl)piperidin-1-yl)phenyl)acrylamide] | < 1 | < 1 | 20 | 50 to 100 | 50 to 100 | 50 to 100 | 50 to 100 |
